{"source": "paper PMC4631478", "about": "“Structure of AadA from Salmonella enterica: a monomeric aminoglycoside (3′′)(9) adenyltransferase” (Acta Crystallographica Section D: Biological Crystallography, 2015)", "key": {"AadA wild type": {"molecular_target": "T1, AadA wild type (Salmonella typhimurium, UniProt Q8ZPX9)", "T1 construct": "made in house; host or cells: Escherichia coli BL21 Star", "T1 sequence (Q8ZPX9 1-262)": "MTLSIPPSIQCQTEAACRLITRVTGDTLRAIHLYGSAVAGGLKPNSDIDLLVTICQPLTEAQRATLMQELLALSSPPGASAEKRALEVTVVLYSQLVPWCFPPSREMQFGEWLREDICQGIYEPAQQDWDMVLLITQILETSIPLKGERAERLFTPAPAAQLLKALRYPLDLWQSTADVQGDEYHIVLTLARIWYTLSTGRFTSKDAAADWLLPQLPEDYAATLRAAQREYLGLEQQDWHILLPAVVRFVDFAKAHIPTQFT", "test": "ITC binding, wild-type AadA", "design": "species or system Salmonella enterica", "conditions": "for Kd: ITC; for binding to AadA in the absence of ATP (ITC): data not shown", "experimental": "(§1) Binding studies were performed at 25°C using a MicroCal iTC200 instrument (GE Healthcare). Wild-type or mutant AadA at 20–30 µM concentration was dialyzed overnight against 50 mM Tris–HCl pH 7.5, 200 mM NaCl, 5 mM MgCl2, 1 mM tris(2-carboxyethyl)phosphine and titrated with 500–1000 µM ATP, streptomycin (Sigma) or spectinomycin (Sigma) freshly dissolved in the same batch of dialysis buffer prior to each experiment. For titration of streptomycin/spectinomycin in the presence of ATP, a first titration of AadA with ATP to saturation was followed by a second titration with streptomycin/spectinomycin in buffer containing an equivalent concentration of ATP as in the cell. In this way, heats of dilution of ATP were avoided. At least […] consecutive injections of 2 µl were applied at 2 min intervals. The data were analyzed using the MicroCal Analysis plugin in Origin. All ITC data were analyzed assuming one set of binding sites. Each experiment was performed at least twice. For spectinomycin, the concentration used to fit the data was adjusted to the estimated active concentration in binding to AadA, assuming 1:1 binding."}, "AadA R192A": {"molecular_target": "T2, AadA R192A (Salmonella typhimurium, UniProt Q8ZPX9, R192A)", "T2 construct": "made in house; host or cells: Escherichia coli BL21 Star", "T2 sequence (Q8ZPX9 1-262 R192A)": "T1 sequence (Q8ZPX9 1-262) with R192A", "test": "ITC binding, AadA R192A", "design": "species or system Salmonella enterica", "conditions": "for Kd: in the presence of ATP, read-out: K d of substrate ligand (streptomycin / spectinomycin)", "experimental": "as §1"}, "AadA K205A": {"molecular_target": "T3, AadA K205A (Salmonella typhimurium, UniProt Q8ZPX9, K205A)", "T3 construct": "made in house; host or cells: Escherichia coli BL21 Star", "T3 sequence (Q8ZPX9 1-262 K205A)": "T1 sequence (Q8ZPX9 1-262) with K205A", "test": "ITC binding, AadA K205A", "design": "species or system Salmonella enterica", "conditions": "for Kd: in the presence of ATP, read-out: K d of substrate ligand (streptomycin / spectinomycin)", "experimental": "as §1"}, "[1]": {"system": "AadA Glu87 mutants (E87A and E87Q)", "test": "ITC binding, Glu87 mutants of AadA stated together", "design": "species or system Salmonella enterica", "experimental": "as §1"}, "AadA E87A": {"molecular_target": "T4, AadA E87A (Salmonella typhimurium, UniProt Q8ZPX9, E87A)", "T4 construct": "made in house; host or cells: Escherichia coli BL21 Star", "T4 sequence (Q8ZPX9 1-262 E87A)": "T1 sequence (Q8ZPX9 1-262) with E87A", "test": "ITC binding, AadA E87A", "design": "species or system Salmonella enterica", "conditions": "25°C, in the presence of ATP, nb = no binding detected", "experimental": "as §1"}, "AadA D182N": {"molecular_target": "T5, AadA D182N (Salmonella typhimurium, UniProt Q8ZPX9, D182N)", "T5 construct": "made in house; host or cells: Escherichia coli BL21 Star", "T5 sequence (Q8ZPX9 1-262 D182N)": "T1 sequence (Q8ZPX9 1-262) with D182N", "test": "ITC binding, AadA D182N", "design": "species or system Salmonella enterica", "conditions": "25°C, in the presence of ATP, read-out: K d of substrate ligand (streptomycin / spectinomycin)", "experimental": "as §1"}, "bacterial growth": {"system": "bacterial growth", "design": "method as in vendor (Sigma)", "conditions": "as sold; as estimated from a bacterial growth assay; ref vendor (Sigma); cited from earlier work"}, "AadA E87Q": {"molecular_target": "T6, AadA E87Q (Salmonella typhimurium, UniProt Q8ZPX9, E87Q)", "T6 construct": "made in house; host or cells: Escherichia coli BL21 Star", "T6 sequence (Q8ZPX9 1-262 E87Q)": "T1 sequence (Q8ZPX9 1-262) with E87Q", "test": "ITC binding, AadA E87Q", "design": "species or system Salmonella enterica", "conditions": "25°C, in the presence of ATP, nb = no binding detected", "experimental": "as §1"}, "AadA W112F": {"molecular_target": "T7, AadA W112F (Salmonella typhimurium, UniProt Q8ZPX9, W112F)", "T7 construct": "made in house; host or cells: Escherichia coli BL21 Star", "T7 sequence (Q8ZPX9 1-262 W112F)": "T1 sequence (Q8ZPX9 1-262) with W112F", "test": "ITC binding, AadA W112F", "design": "species or system Salmonella enterica", "conditions": "25°C, in the presence of ATP, read-out: K d of substrate ligand (streptomycin / spectinomycin)", "experimental": "as §1"}, "[2]": {"conditions": "ITC, 25°C, 5 mM MgCl2, nb = no binding detected"}, "[3]": {"conditions": "25°C, in the presence of ATP, wild type AadA, read-out: K d of substrate ligand (streptomycin / spectinomycin)"}}, "note": "Residue numbers refer to the chain shown, from its start. Where two headings read alike, the source gives them in different places."}
{"smiles": "Nc1ncnc2c1ncn2[C@@H]1O[C@H](COP(=O)(O)CP(=O)(O)OP(=O)(O)O)[C@@H](O)[C@H]1O", "note": "[AMPCPP]", "values": [{"measurement": "binding to wild-type AadA (ITC)", "setting": "AadA wild type; nucleotide titrated alone", "result": "did not show any detectable binding"}]}
{"smiles": "Nc1ncnc2c1ncn2[C@@H]1O[C@H](COP(=O)(O)OP(=O)(O)OP(=O)(O)O)[C@@H](O)[C@H]1O", "note": "[ATP]", "values": [{"measurement": "ATP binding (ITC)", "setting": "AadA R192A", "result": "no ATP binding could be detected"}, {"measurement": "K d(ATP)", "setting": "AadA R192A; [2]", "result": "nb"}, {"measurement": "ATP binding (ITC)", "setting": "AadA K205A", "result": "no ATP binding could be detected"}, {"measurement": "K d(ATP)", "setting": "AadA K205A; [2]", "result": "nb"}, {"measurement": "Kd", "setting": "AadA wild type; wild-type AadA, read-out: K d of ATP", "result": 13000, "unit": "nM"}, {"measurement": "lower affinity for ATP compared with the wild type", "setting": "[1]; E87Q and E87A vs wild type, ITC", "result": "threefold to fourfold lower affinity"}]}
{"smiles": "CN[C@@H]1[C@H](O)[C@H](NC)[C@H]2O[C@@]3(O)C(=O)C[C@@H](C)O[C@H]3O[C@@H]2[C@H]1O", "note": "[Spectinomycin, spectinomycin]", "values": [{"measurement": "Kd", "setting": "AadA R192A; ITC, 25°C", "result": "> 30000", "unit": "nM"}, {"measurement": "K d of substrate ligand (streptomycin / spectinomycin)", "setting": "AadA E87A", "result": "nb"}, {"measurement": "Kd", "setting": "AadA D182N", "result": "> 30000", "unit": "nM"}, {"measurement": "Kd", "setting": "AadA K205A; ITC, 25°C", "result": "> 10000", "unit": "nM"}, {"measurement": "potency", "setting": "bacterial growth", "result": 603, "unit": "µg/mg"}, {"measurement": "Kd", "setting": "AadA wild type; [3]", "result": 500, "unit": "nM"}, {"measurement": "binding to AadA in the absence of ATP (ITC)", "setting": "AadA wild type", "result": "did not display detectable binding"}, {"measurement": "activity in binding to AadA, of the assumed active concentration", "setting": "AadA wild type; from fit of the ITC data assuming 1:1 binding", "result": 31, "unit": "%"}, {"measurement": "K d of substrate ligand (streptomycin / spectinomycin)", "setting": "AadA E87Q", "result": "nb"}, {"measurement": "Kd", "setting": "AadA W112F", "result": 600, "unit": "nM"}, {"measurement": "binding of spectinomycin (ITC)", "setting": "[1]; Glu87 mutants", "result": "no measurable binding"}]}
{"smiles": "[H]/N=C(/N)N[C@H]1[C@H](O)[C@@H](O)[C@H](O[C@@H]2O[C@@H](C)[C@](O)(C=O)[C@H]2O[C@@H]2O[C@@H](CO)[C@H](O)[C@@H](O)[C@@H]2NC)[C@@H](N/C(N)=N\\[H])[C@@H]1O", "note": "[Streptomycin, streptomycin]", "values": [{"measurement": "Kd", "setting": "AadA R192A; ITC, 25°C", "result": "> 100000", "unit": "nM"}, {"measurement": "Kd", "setting": "AadA D182N", "result": 700, "unit": "nM"}, {"measurement": "Kd", "setting": "AadA K205A; ITC, 25°C", "result": 1300, "unit": "nM"}, {"measurement": "Kd", "setting": "AadA wild type; [3]", "result": 500, "unit": "nM"}, {"measurement": "binding to AadA in the absence of ATP (ITC)", "setting": "AadA wild type", "result": "did not display detectable binding"}, {"measurement": "Kd", "setting": "AadA W112F", "result": 800, "unit": "nM"}, {"measurement": "lowered affinity for streptomycin", "setting": "[1]; Glu87 mutants vs wild type, ITC", "result": "20–40 fold"}]}
